Assay results published in PubChem BioAssay AID1963864 (Molecular Pharmacology Branch, DTP, NCI, 2024).

Test system: KRAS PDC multicell spheroid viability
Test: Anticancer human tumor 521955-158-R6-J3-PDC patient-derived pancreatic carcinoma cell line growth inhibition [KRAS2]
Details: for IC50: curve of first compound; for viability, T/C: stronger effect = lower value
Outline: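 Combination screen of spheroid viability in tumor-cell co-cultures with endothelial (HUVEC) and mesenchymal stem cell stroma. Each agent was tested in half-log dilutions, topping at clinical Cmax or at 10 microM without a known Cmax.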

[1] = second compound 0.0316 µM, first compound 0.0316 µM
[2] = second compound 0.0316 µM, first compound 0.1 µM
[3] = second compound 0.1 µM, first compound 0.0316 µM
[4] = second compound 0.1 µM, first compound 0.1 µM
[5] = second compound 0.316 µM, first compound 0.0316 µM
[6] = second compound 0.316 µM, first compound 0.1 µM
[7] = second compound 1 µM, first compound 0.0316 µM
[8] = second compound 1 µM, first compound 0.1 µM
[9] = second compound 3.16 µM, first compound 0.0316 µM
[10] = second compound 3.16 µM, first compound 0.1 µM
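Further: drug exposure lasted seven days.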
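Wherever viability, T/C is given: 100% = DMSO vehicle wells and lower means fewer viable cells.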

In the case of `CCNC(=O)CC1N=C(c2ccc(Cl)cc2)c2cc(OC)ccc2-n2c(C)nnc21` (stereo not given) + C=CC(=O)N1CCN(c2nc(OCC3CCCN3C)nc3c2CCN(c2cccc4cccc(C)c24)C3)CC1CC#N, the IC50 (second compound 0.0316 µM) is reported as greater than 10000 nM, the IC50 (second compound 0.1 µM) is reported as greater than 10000 nM and the IC50 (second compound 0.316 µM) is reported as greater than 10000 nM. The IC50 (second compound 1 µM) was greater than 10000 nM, the IC50 (second compound 3.16 µM) was 101 nM and the viability, T/C [1] was 106%. For the same compound, the viability, T/C [2] was 87.1%, the viability, T/C (second compound 0.0316 µM, first compound 0.316 µM) was 64.3% and the viability, T/C (second compound 0.0316 µM, first compound 1 µM) was 74.9%. The viability, T/C (second compound 0.0316 µM, first compound 3.16 µM) was 83.2%, the viability, T/C (second compound 0.0316 µM, first compound 10 µM) was 76.6% and the viability, T/C [3] was 88.6%. The viability, T/C [4] was 102%, the viability, T/C (second compound 0.1 µM, first compound 0.316 µM) was 78.4% and the viability, T/C (second compound 0.1 µM, first compound 1 µM) was 69.3%. It also gave a viability, T/C (second compound 0.1 µM, first compound 3.16 µM) of 73.1%, a viability, T/C (second compound 0.1 µM, first compound 10 µM) of 75.9% and a viability, T/C [5] of 101%. The viability, T/C [6] was 93.2%, the viability, T/C (second compound 0.316 µM, first compound 0.316 µM) was 76% and the viability, T/C (second compound 0.316 µM, first compound 1 µM) was 74.5%. For the same compound, the viability, T/C (second compound 0.316 µM, first compound 3.16 µM) was 77.1%, the viability, T/C (second compound 0.316 µM, first compound 10 µM) was 69.2% and the viability, T/C [7] was 86.6%. For the same compound, the viability, T/C [8] was 83.9%, the viability, T/C (second compound 1 µM, first compound 0.316 µM) was 77.8% and the viability, T/C (second compound 1 µM, first compound 1 µM) was 62.2%. The viability, T/C (second compound 1 µM, first compound 3.16 µM) was 69.6%, the viability, T/C (second compound 1 µM, first compound 10 µM) was 81% and the viability, T/C [9] was 47%. It also gave a viability, T/C [10] of 53.1%, a viability, T/C (second compound 3.16 µM, first compound 0.316 µM) of 30.5% and a viability, T/C (second compound 3.16 µM, first compound 1 µM) of 1.65%. For the same compound, the viability, T/C (second compound 3.16 µM, first compound 3.16 µM) was 31% and the viability, T/C (second compound 3.16 µM, first compound 10 µM) was 35.1%.
In the case of `Cn1ncnc1[C@H]1c2n[nH]c(=O)c3cc(F)cc(c23)N[C@@H]1c1ccc(F)cc1` + C=CC(=O)N1CCN(c2nc(OCC3CCCN3C)nc3c2CCN(c2cccc4cccc(C)c24)C3)CC1CC#N, the IC50 (second compound 0.0316 µM) is reported as greater than 100 nM, the IC50 (second compound 0.1 µM) is reported as greater than 100 nM and the IC50 (second compound 0.316 µM) is reported as greater than 100 nM. It also gave an IC50 (second compound 1 µM) greater than 100 nM, an IC50 (second compound 3.16 µM) of less than 0.316 nM and a viability, T/C (second compound 0.0316 µM, first compound 0.000316 µM) of 100%. The viability, T/C (second compound 0.0316 µM, first compound 0.001 µM) was 100%, the viability, T/C (second compound 0.0316 µM, first compound 0.00316 µM) was 98.1% and the viability, T/C (second compound 0.0316 µM, first compound 0.01 µM) was 105%. For the same compound, the viability, T/C [1] was 97%, the viability, T/C [2] was 90.8% and the viability, T/C (second compound 0.1 µM, first compound 0.000316 µM) was 94.2%. It also gave a viability, T/C (second compound 0.1 µM, first compound 0.001 µM) of 94.5%, a viability, T/C (second compound 0.1 µM, first compound 0.00316 µM) of 104% and a viability, T/C (second compound 0.1 µM, first compound 0.01 µM) of 91.9%. It also gave a viability, T/C [3] of 98.9%, a viability, T/C [4] of 89.4% and a viability, T/C (second compound 0.316 µM, first compound 0.000316 µM) of 94.1%. The viability, T/C (second compound 0.316 µM, first compound 0.001 µM) was 89.9%, the viability, T/C (second compound 0.316 µM, first compound 0.00316 µM) was 95.1% and the viability, T/C (second compound 0.316 µM, first compound 0.01 µM) was 88.4%. It also gave a viability, T/C [5] of 92.2%, a viability, T/C [6] of 91% and a viability, T/C (second compound 1 µM, first compound 0.000316 µM) of 83.8%. For the same compound, the viability, T/C (second compound 1 µM, first compound 0.001 µM) was 78.6%, the viability, T/C (second compound 1 µM, first compound 0.00316 µM) was 88.3% and the viability, T/C (second compound 1 µM, first compound 0.01 µM) was 91.7%. The viability, T/C [7] was 78.6%, the viability, T/C [8] was 85.4% and the viability, T/C (second compound 3.16 µM, first compound 0.000316 µM) was 50.4%. It also gave a viability, T/C (second compound 3.16 µM, first compound 0.001 µM) of 43.3%, a viability, T/C (second compound 3.16 µM, first compound 0.00316 µM) of 53.2% and a viability, T/C (second compound 3.16 µM, first compound 0.01 µM) of 54.5%. For the same compound, the viability, T/C [9] was 52.6% and the viability, T/C [10] was 53.6%.
